Source: US9751861B2, “N1-(3,3,3-trifluoro-2-hydroxo-2-methylpropionyl)-piperidine derivatives as inhibitors of pyruvate dehydrogenase kinase” (MERCK PATENT GMBH, priority 2013, dated 2017)

Experiments:
human PDHK2 (12-407) = biological target: T1, human PDHK2 (12-407) (Homo sapiens, UniProt Q15119); assay: Isothermal titration calorimetry (ITC) binding; conditions: 30° C., pH 7.5
T1 construct: The human PDHK2 (12-407) was produced in E. coli; His-tag (cleaved yes); made in house; host or cells: E. coli
Description: Isothermal Titration Calorimetry
ITC measurements were performed with a VP-ITC micro calorimeter (Microcal, LLC/GE Healthcare Bio-Sciences AB, Uppsala, Sweden). In general titrations were performed by titrating the protein (50 μM) to the test compound (5 μM) in 12 μl injections. All binding experiments were carried out at 30° C. In general the test compounds were diluted form DMSO stock solutions into the measurement buffer with a maximum final concentration of 1% DMSO. The measurement buffer was 20 mM HEPES, 135 mM KCl, 1 mM TCEP, 2 mM MgCl2, 15 mM NaH2PO4, pH 7.5. The human PDHK2 (12-407) was produced in E. coli as his-tagged protein and purified by affinity chromatography. The tag was removed by side specific proteolysis. Before titration the protein buffer was changed to the measurement buffer containing the same DMSO concentration as the test compound dilution. ITC data analysis was performed using Origin 7 calorimetry software from the same supplier. For most measurements a binding model of one binding site was assumed. According to the applied mathematical model it is possible to calculate the binding constant (KA), the observed binding enthalpy (ΔH^obs) as well as the stoichiometry (N) of the formed complex. Preceding analysis the raw data was corrected for the heats of dilution by extrapolating from the saturation value from the end of titration. In order to allow for direct comparison between the respective experimental series and protein preparations the protein concentration was corrected by referencing titrations to a well behaved standard inhibitor. The apparent stoichiometry values defined the fraction of binding competent protein and compensated for relative errors in protein concentration measurements. This corrected protein concentration was used to set up ITC experiment series with test compounds. Any deviations from ideal 1:1 stoichiometry observed here were attributed to errors in compound concentration. This nominal compound concentration was corrected as well to achieve 1:1 stoichiometry in the fit.

PDHK2 = biological target: T2, PDHK2 (Homo sapiens, UniProt Q15119); assay: Biochemical activity testing of PDHK2: PDC inactivation assay; conditions: human rec PDHK2, PDC from porcine heart, ATP 5 μM; read-out: IC50 PDHK2 (enzyme assay)
T2 construct: purchased Carna Bioscience
Text: Biochemical Activity Testing of PDHK2: PDC Inactivation Assay
The biochemical activity assay for PDHK2 is based on the inactivation of PDC through phosphorylation by PDHK2. The assay is run in two steps: the enzymatic PDHK2 reaction in which isolated PDC is phosphorylated by PDHK2 with ATP as co-substrate and the PDC activity assay in which pyruvate and NAD are converted to acetyl-CoA and NADH. The PDC activity correlates to the increase in NADH and thereby is detectable directly via the increasing fluorescence signal (Exc 340 nm, Em 450 nm). Inhibition of PDHK2 results in a lower phosphorylation status and thereby a less decrease in activity of PDC and a stronger increase in NADH fluorescence signal.
The PDC inactivation assay is performed in Greiner 384-well microtiter plates and is used for high throughput screen. 4 μl of PDHK2 (human, rec, Carna Bioscience, 10 ng/μl-137 nM final concentration) and PDC (isolated from porcine heart, Sigma-Aldrich, 20 mU/ml final concentration) are incubated in the absence or presence of the test compound (10 dilution concentrations) for 30 min at room temperature in kinase buffer (15 mM potassium phosphate buffer, pH 7.0, 60 mM KCl, 1.5 mM DTT, 2.5 mM MgCl2, 0.0125% (w/v) BSA, 0.125% Pluronic F-68). The kinase reaction is started by the addition of 4 μl ATP substrate solution (fc 5 μM in kinase buffer). After 30 min incubation at 37° C. 40 μl of PDC reaction solution (100 mM Tris/HCl, pH 7.8, 0.5 mM EDTA, 1 mM MgCl2, 50 mM NaF, 0.25 mM Coenzyme A, 5 mM pyruvate, 1 mM NAD, 5 mM DTT, […] thiamine pyrophosphate) is added. The first fluorescence measurement is performed on a Perkin Elmer Envision (Exc 340 nm, Em 450 nm). The reaction is incubated for 45 min at room temperature. Afterwards a second fluorescence measurement is performed and the PDC activity is calculated by the difference between both measurements. As full value for the PDHK2 assay the inhibitor-free PDHK2 reaction is used. The pharmacological zero value used is DCA (Sigma-Aldrich) in a final concentration of 3 mM. The inhibitory values (IC50) were determined using either the program Symyx Assay Explorer® or Condosseo® from GeneData.

SMILES | Kd (human PDHK2 (12-407)) | IC50 (PDHK2)
C[C@@](O)(C(=O)N1CCC(c2ccn(-c3ccc(Cl)cn3)n2)CC1)C(F)(F)F [Compound A29, (R)-1-{4-[1-(5-Chloro-pyridin-2-yl)-1H-pyrazol-3-yl]-piperidin-1-yl}-3,3,3-trifluoro-2-hydroxy-2-methyl-propan-1-one] | 0.3 to 3 µM | 0.3 to 3 µM
Cc1cc(C2CCN(C(=O)[C@@](C)(O)C(F)(F)F)CC2)nn1-c1ccc(Cl)cc1 [Compound A34, (R)-1-{4-[1-(4-Chloro-phenyl)-5-methyl-1H-pyrazol-3-yl]-piperidin-1-yl}-3,3,3-trifluoro-2-hydroxy-2-methyl-propan-1-one] | 0.3 to 3 µM | 0.3 to 3 µM
Cc1cc(C2CCN(C(=O)[C@@](C)(O)C(F)(F)F)CC2)nn1-c1ccc(F)cc1 [Compound A40, (R)-1-{4-[1-(4-Fluoro-phenyl)-5-methyl-1H-pyrazol-3-yl]-piperidin-1-yl}-3,3,3-trifluoro-2-hydroxy-2-methyl-propan-1-one] |  | 0.3 to 3 µM
C[C@H]1CN(C(=O)[C@@](C)(O)C(F)(F)F)CC[C@H]1c1ccn(-c2ccc(F)cc2)n1 [Compound A45, (R)-3,3,3-Trifluoro-1-{(3R,4R)-4-[1-(4-fluoro-phenyl)-1H-pyrazol-3-yl]-3-methyl-piperidin-1-yl}-2-hydroxy-2-methyl-propan-1-one] |  | 3 to 50 µM
Cc1cc(C2CCN(C(=O)[C@@](C)(O)C(F)(F)F)CC2)nn1-c1ccccc1 [Compound A47, (R)-1-[4-(5-Methyl-1-phenyl-1H-pyrazol-3-yl)-piperidin-1-yl]-3,3,3-trifluoro-2-hydroxy-2-methyl-propan-1-one] |  | 3 to 50 µM
Cc1cc(C2CCN(C(=O)[C@@](C)(O)C(F)(F)F)CC2)n(-c2ccc(Cl)cc2)n1 [Compound A50, (R)-1-{4-[2-(4-Chloro-phenyl)-5-methyl-2H-pyrazol-3-yl]-piperidin-1-yl}-3,3,3-trifluoro-2-hydroxy-2-methyl-propan-1-one] | < 0.3 µM | < 0.3 µM
C[C@@](O)(C(=O)N1CCC(c2ccnn2C2CCCC2)CC1)C(F)(F)F [Compound A51, (R)-1-[4-(2-Cyclopentyl-2H-pyrazol-3-yl)-piperidin-1-yl]-3,3,3-trifluoro-2-hydroxy-2-methyl-propan-1-one] |  | 0.3 to 3 µM
Cn1nccc1C1CCN(C(=O)[C@@](C)(O)C(F)(F)F)CC1 [Compound A52, (R)-3,3,3-Trifluoro-2-hydroxy-2-methyl-1-[4-(2-methyl-2H-pyrazol-3-yl)piperidin-1-yl]-propan-1-one] | 0.3 to 3 µM | 0.3 to 3 µM
C[C@@](O)(C(=O)N1CCC(n2cnnc2-c2ccc(Cl)cc2)CC1)C(F)(F)F [Compound A56, (R)-1-{4-[3-(4-Chloro-phenyl)-[1,2,4]triazol-4-yl]-piperidin-1-yl}-3,3,3-trifluoro-2-hydroxy-2-methyl-propan-1-one] | 0.3 to 3 µM | 0.3 to 3 µM
Cc1ccc(-n2nncc2C2CCN(C(=O)[C@@](C)(O)C(F)(F)F)CC2)cc1 [Compound A59, (R)-3,3,3-Trifluoro-2-hydroxy-2-methyl-1-[4-(3-p-tolyl-3 H-[1,2,3]triazol-4-yl)piperidin-1-yl]-propan-1-one] |  | 0.3 to 3 µM
C[C@@](O)(C(=O)N1CCC(c2nccn2-c2ccc(Cl)cc2)CC1)C(F)(F)F [Compound A69, (R)-1-{4-[1-(4-Chloro-phenyl)-1H-imidazol-2-yl]-piperidin-1-yl}-3,3,3-trifluoro-2-hydroxy-2-methyl-propan-1-one] |  | 0.3 to 3 µM
C[C@@](O)(C(=O)N1CCC(c2nncn2-c2ccc(Cl)cc2)CC1)C(F)(F)F [Compound A73, (R)-1-{4-[4-(4-Chloro-phenyl)-4H-[1,2,4]triazol-3-yl]-piperidin-1-yl}-3,3,3-trifluoro-2-hydroxy-2-methyl-propan-1-one] |  | 0.3 to 3 µM
CN1CCC(n2nccc2C2CCN(C(=O)[C@@](C)(O)C(F)(F)F)CC2)CC1 [Compound A75, (R)-3,3,3-Trifluoro-2-hydroxy-2-methyl-1-{4-[2-(1-methyl-piperidin-4-yl)-2H-pyrazol-3-yl]-piperidin-1-yl}-propan-1-one] |  | 3 to 50 µM
CC(C)Cn1nccc1C1CCN(C(=O)[C@@](C)(O)C(F)(F)F)CC1 [Compound A76, (R)-3,3,3-Trifluoro-2-hydroxy-1-[4-(2-isobutyl-1H-pyrazol-3-yl)-1-piperidyl]-2-methyl-propan-1-one] |  | 3 to 50 µM
C[C@@](O)(C(=O)N1CCC(c2ccnn2-c2ccc(C#N)nc2)CC1)C(F)(F)F [Compound A81, 5-{5-[1-((R)-3,3,3-Trifluoro-2-hydroxy-2-methyl-propionyl)-piperidin-4-yl]-pyrazol-1-yl}-pyridine-2-carbonitrile] |  | 0.3 to 3 µM
C[C@@](O)(C(=O)N1CCC(c2ccnn2-c2ccc(C(F)(F)F)cn2)CC1)C(F)(F)F [Compound A84, (R)-3,3,3-Trifluoro-2-hydroxy-2-methyl-1-{4-[2-(5-trifluoromethyl-pyridin-2-yl)-2H-pyrazol-3-yl]-piperidin-1-yl}-propan-1-one] |  | 0.3 to 3 µM
C[C@@](O)(C(=O)N1CCC(c2ccnn2-c2ccccc2C(F)(F)F)CC1)C(F)(F)F [Compound A89, (R)-3,3,3-Trifluoro-2-hydroxy-2-methyl-1-[4-[2-[2-(trifluoromethyl)phenyl]-2H-pyrazol-3-yl]-1-piperidyl]propan-1-one] |  | 0.3 to 3 µM
COc1cc(F)ccc1-n1nccc1C1CCN(C(=O)[C@@](C)(O)C(F)(F)F)CC1 [Compound A90, (R)-3,3,3-Trifluoro-1-{4-[2-(4-fluoro-2-methoxy-phenyl)-2H-pyrazol-3-yl]-piperidin-1-yl}-2-hydroxy-2-methyl-propan-1-one] |  | 0.3 to 3 µM
Cn1ccc(C2CCN(C(=O)[C@@](C)(O)C(F)(F)F)CC2)n1 [Compound A99, (R)-3,3,3-Trifluoro-2-hydroxy-2-methyl-1-[4-(1-methyl-1H-pyrazol-3-yl)piperidin-1-yl]-propan-1-one] |  | 3 to 50 µM
C[C@@](O)(C(=O)N1CCC(c2ccn(-c3ncc(Cl)cn3)n2)CC1)C(F)(F)F [Compound A103, (R)-1-{4-[1-(5-Chloro-pyrimidin-2-yl)-1H-pyrazol-3-yl]-piperidin-1-yl}-3,3,3-trifluoro-2-hydroxy-2-methyl-propan-1-one] |  | 3 to 50 µM
C[C@@](O)(C(=O)N1CCC(c2ccn[nH]2)CC1)C(F)(F)F [Compound A104, (R)-3,3,3-Trifluoro-2-hydroxy-2-methyl-1-[4-(2H-pyrazol-3-yl)-piperidin-1-yl]-propan-1-one] |  | 3 to 50 µM
C[C@@](O)(C(=O)N1CCC(c2ccn(-c3ncc(F)cc3F)n2)CC1)C(F)(F)F [Compound A109, (R)-1-{4-[1-(3,5-Difluoro-pyridin-2-yl)-1H-pyrazol-3-yl]-piperidin-1-yl}-3,3,3-trifluoro-2-hydroxy-2-methyl-propan-1-one] |  | 0.3 to 3 µM
CC(C)Cn1ccc(C2CCN(C(=O)[C@@](C)(O)C(F)(F)F)CC2)n1 [Compound A114, (R)-3,3,3-Trifluoro-2-hydroxy-1-[4-(1-isobutyl-1H-pyrazol-3-yl)-piperidin-1-yl]-2-methyl-propan-1-one] |  | 0.3 to 3 µM
